Assays:
c-MET = c-MET (Homo sapiens, UniProt P08581); experiment: MET luminescence-based enzyme assay (Kinase-Glo); type: biochemical
Procedure: The subscript designates positive or negative controls. The Z′ score for a robust screening assay should be ≧0.50. The typical threshold=μ+−3*σ+. Any value that falls below the threshold was designated a “hit”.
MET Luminescence-Based Enzyme Assay
MET kinase (see below), Kinase-Glo™ (Promega Cat#V6712).
Negative controls contained 10 μM staurosporine.

TPR-MET Ba/F3 cells = biological target: T1, TPR-MET Ba/F3 cells (Homo sapiens, UniProt P08581); experiment: 96-well XTT cell survival assay (Ba/F3 cells); type: cell-based; details: cells marked (BaF3), 72 hours; read-out: XTT Assay IC50 (BaF3)
T1 construct: TPR-MET Ba/F3 cells were created by stably transducing the human TPR-MET gene into Ba/F3 cells using a retroviral system; fused on or other part: P12270 (Nucleoprotein TPR)
Procedure: TPR-MET Ba/F3 cells were created by stably transducing the human TPR-MET gene into Ba/F3 cells using a retroviral system. All cell lines were grown in RPMI-1640 supplemented with 1× penicillin/streptomycin and 10% fetal bovine (Invitrogen, Carlsbad, Calif.). The cells were maintained in a 5% CO2 humidified incubator at 37° C.
Compounds were tested in the following assays in duplicate.
96-well XTT assay (Ba/F3 cells): Cells were grown in growth media containing various concentrations of compounds (duplicates) on a 96-well plate for 72 hours at 37° C. The starting cell number was 5000-8000 cells per well and volume was 120 μl. At the end of the 72-hour incubation, 40 μl of XTT labeling mixture (50:1 solution of sodium 3′-[1-(phenylamino-carbonyl)-3,4-tetrazolium]-bis(4-methoxy-6-nitro) benzene sulfonic acid hydrate and Electron-coupling reagent: PMS (N-methyl dibenzopyrazine methyl sulfate) were added to each well of the plate. After an additional 2-6 hours of incubation at 37° C., the absorbance reading at 405 nm with background correction at 650 nm was measured with a spectrophotometer.

T1 sequence (P08581 whole entry, change not shown, the tested form may be a part): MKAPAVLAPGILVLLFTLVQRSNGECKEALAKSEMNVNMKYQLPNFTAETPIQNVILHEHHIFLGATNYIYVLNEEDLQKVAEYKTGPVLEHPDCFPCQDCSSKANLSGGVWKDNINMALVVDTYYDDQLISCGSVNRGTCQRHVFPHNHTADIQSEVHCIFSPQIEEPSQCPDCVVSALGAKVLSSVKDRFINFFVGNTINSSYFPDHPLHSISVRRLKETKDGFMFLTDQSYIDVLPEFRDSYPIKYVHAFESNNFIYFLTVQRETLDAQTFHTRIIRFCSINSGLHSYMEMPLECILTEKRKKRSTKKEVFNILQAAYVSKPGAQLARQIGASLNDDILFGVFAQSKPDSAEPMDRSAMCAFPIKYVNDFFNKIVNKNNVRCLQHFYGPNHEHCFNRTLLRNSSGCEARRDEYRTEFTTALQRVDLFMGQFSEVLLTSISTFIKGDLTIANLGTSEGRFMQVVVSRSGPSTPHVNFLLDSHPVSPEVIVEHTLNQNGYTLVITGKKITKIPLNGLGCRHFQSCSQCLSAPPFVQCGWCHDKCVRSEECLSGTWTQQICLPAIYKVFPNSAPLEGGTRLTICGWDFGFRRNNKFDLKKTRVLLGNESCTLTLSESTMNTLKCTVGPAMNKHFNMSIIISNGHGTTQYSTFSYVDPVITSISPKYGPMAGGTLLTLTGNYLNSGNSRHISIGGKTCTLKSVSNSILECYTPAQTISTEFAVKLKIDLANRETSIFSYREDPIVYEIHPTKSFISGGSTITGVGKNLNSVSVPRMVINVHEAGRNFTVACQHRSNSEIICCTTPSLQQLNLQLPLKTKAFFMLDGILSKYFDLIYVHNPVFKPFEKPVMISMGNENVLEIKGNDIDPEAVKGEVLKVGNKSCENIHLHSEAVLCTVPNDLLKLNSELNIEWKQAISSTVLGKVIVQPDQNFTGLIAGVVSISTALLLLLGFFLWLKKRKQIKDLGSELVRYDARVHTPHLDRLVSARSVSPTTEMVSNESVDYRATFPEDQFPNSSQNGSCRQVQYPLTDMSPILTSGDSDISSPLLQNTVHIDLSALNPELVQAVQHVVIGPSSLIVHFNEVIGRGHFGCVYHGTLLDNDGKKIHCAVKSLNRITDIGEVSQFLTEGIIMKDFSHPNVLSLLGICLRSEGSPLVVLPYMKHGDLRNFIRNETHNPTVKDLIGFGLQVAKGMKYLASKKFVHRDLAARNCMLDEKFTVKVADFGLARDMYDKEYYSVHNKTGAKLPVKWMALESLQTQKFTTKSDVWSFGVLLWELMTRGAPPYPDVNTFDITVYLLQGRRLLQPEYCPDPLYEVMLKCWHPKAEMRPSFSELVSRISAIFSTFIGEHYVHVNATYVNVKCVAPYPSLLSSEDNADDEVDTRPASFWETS
Chain of c-MET (P08581 1078-1345 limits assumed): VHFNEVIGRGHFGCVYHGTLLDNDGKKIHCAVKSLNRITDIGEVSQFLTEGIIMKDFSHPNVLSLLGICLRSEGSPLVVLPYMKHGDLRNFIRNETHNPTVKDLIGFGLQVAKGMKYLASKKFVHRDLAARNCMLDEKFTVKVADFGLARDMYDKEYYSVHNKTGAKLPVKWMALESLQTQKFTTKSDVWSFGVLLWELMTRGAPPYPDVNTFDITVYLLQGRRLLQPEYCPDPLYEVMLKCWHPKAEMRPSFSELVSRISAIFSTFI

Question: `CNC(=O)c1ccc(-c2ccc3nnc(Sc4ccc5ncn(C)c5c4)n3n2)cc1F` [Compound 19, 2-Fluoro-N-methyl-4-[3-(3-methyl-3H-benzoimidazol-5-ylsulfanyl)-[1,2,4]triazolo[4,3-b]pyridazin-6-yl]-benzamide] was tested. Which IC50 (c-MET) did it give?
Answer: < 0.1 µM

Question: What about the GI50 (TPR-MET Ba/F3 cells) of the same compound?
Answer: ≤ 0.1 µM

Question: Which results are given for `N#Cc1cccc(-c2ccc3nnc(Sc4ccc5ncccc5c4)n3n2)c1` [Compound 21, 3-[3-(Quinolin-6-ylsulfanyl)-[1,2,4]triazolo[4,3-b]pyridazin-6-yl]-benzonitrile]?
Answer: IC50 (c-MET): < 0.1 µM; GI50 (TPR-MET Ba/F3 cells): ≤ 0.1 µM

Question: Which results are given for `CNC(=O)c1ccc(-c2ccc3nnc(Sc4cc5scnc5cc4F)n3n2)cc1F` [Compound 20]?
Answer: IC50 (c-MET): < 0.1 µM; GI50 (TPR-MET Ba/F3 cells): ≤ 0.1 µM

Question: Which results are given for `N#Cc1cccc(-c2ccc3nnc(Sc4ccc5ncsc5c4)n3n2)c1` [Compound 22, 3-[3-(Benzothiazol-6-ylsulfanyl)-[1,2,4]triazolo[4,3-b]pyridazin-6-yl]-benzonitrile]?
Answer: IC50 (c-MET): < 0.1 µM; GI50 (TPR-MET Ba/F3 cells): 0.1 to 1 µM

Question: With `N#Cc1cccc(-c2ccc3nnc(Sc4cc5cccnc5cc4F)n3n2)c1` [Compound 23, 3-[3-(7-Fluoro-quinolin-6-ylsulfanyl)-[1,2,4]triazolo[4,3-b]pyridazin-6-yl]-benzonitrile] as the compound, how does the IC50 (c-MET) read?
Answer: < 0.1 µM

Question: What about the GI50 (TPR-MET Ba/F3 cells) of the same compound?
Answer: ≤ 0.1 µM

From patent publication US8507489B2, “Bicyclic triazoles as protein kinase modulators” (SGX Pharmaceuticals, Inc., priority 2006, dated 2013)
